How the values were obtained:
[1] = molecular target: T1, N-lysine methyltransferase SMYD2 (Homo sapiens, UniProt Q9NRG4); experiment: Inhibition of FLAG-tagged SMYD2 (unknown origin) expressed in human U2OS cells mediated intracellular p53 methylation incubated for 24 hrs using p53 as substrate by immunofluorescence analysis; format: cell-based
KYSE-150 cell line = experiment: Antitumor activity against human KYSE-150 cells assessed as inhibition of cell proliferation incubated for 3 to 7 days by CellTiter-Glo assay; format: functional, cell-based
[2] = Antitumor activity against human BC cells assessed as inhibition of cell proliferation incubated for 3 to 7 days by CellTiter-Glo assay; format: functional, cell-based
[3] = Antitumor activity against human HCC cells assessed as inhibition of cell proliferation incubated for 3 to 7 days by CellTiter-Glo assay; format: functional, cell-based
KYSE-270 = experiment: Antitumor activity against human KYSE-270 cells assessed as inhibition of cell proliferation incubated for 3 to 7 days by CellTiter-Glo assay; format: functional, cell-based
[4] = molecular target: T1, N-lysine methyltransferase SMYD2; experiment: Inhibition of human SMYD2 overexpressing human KYSE-150 cells assessed as SMYD2 assessed as reduction in BTF3 monomethylation by Western blot analysis; format: cell-based, KYSE-150 cell line

T1 sequence (Q9NRG4 whole entry): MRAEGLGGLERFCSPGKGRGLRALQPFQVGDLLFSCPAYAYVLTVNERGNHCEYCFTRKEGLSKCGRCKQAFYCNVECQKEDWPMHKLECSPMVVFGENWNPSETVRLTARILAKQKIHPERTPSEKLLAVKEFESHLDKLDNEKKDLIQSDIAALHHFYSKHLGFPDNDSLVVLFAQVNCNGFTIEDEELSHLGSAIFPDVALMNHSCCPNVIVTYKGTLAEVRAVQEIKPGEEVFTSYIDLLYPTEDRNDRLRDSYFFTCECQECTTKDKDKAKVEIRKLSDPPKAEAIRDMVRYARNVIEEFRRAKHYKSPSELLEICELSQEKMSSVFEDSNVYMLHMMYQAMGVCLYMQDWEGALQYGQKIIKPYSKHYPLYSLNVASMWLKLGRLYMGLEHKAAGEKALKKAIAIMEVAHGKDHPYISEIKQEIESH

With `O=C1COc2c(CCNCCN(C(=O)CCNCCc3ccc(Cl)c(Cl)c3)C3CCCCC3)ccc(O)c2N1` the IC50 [1] was less than 100 µM.
`Cc1cn(CCN2CCN(c3ccccc3-c3cc(C#N)cc(C(=O)NCCCN4CCCC4)c3)CC2)c2ccccc12` gave an IC50 (KYSE-150 cell line) of 1.5 µM, an IC50 [2] of 1.5 µM and an IC50 [3] of 1.5 µM. For the same molecule, the IC50 (KYSE-270) was 1.5 µM.
`O=C(NC1CN(Cc2cnn(Cc3ccc(Cl)cc3)c2)C1)c1cn(C2CC2)nn1` showed an IC50 [4] of 0.0029 µM.

— ChEMBL document CHEMBL5113510, “Protein Lysine Methyltransferase SMYD2: A Promising Small Molecule Target for Cancer Therapy” (J Med Chem, 2022)
